Entries after “also recorded” stand apart in the source; their conditions may differ. A value given as a limit tells only on which side of the number the result lay.

In assay [1] the target is T1, Recombinant, full-length human HDAC1 (Homo sapiens, UniProt Q13547).
T1 construct: FLAG (C); purchased BPS Biosciences (San Diego, Calif.); host or cells: insect cells (Sf9)
As to the kind of experiment: Primary HDAC1 high-throughput screen, microfluidics-based deacetylase assay, single concentration. It is filed as biochemical. The following applies: for Average activation % during HTS (10 μM): substrate FAM-TSRHKacKL; for Percent activation (%) Replicate 1 / Percent activation (%) Replicate 2: high-throughput screening, 6 h; for Average activation % during HTS (10 μM) / Percent activation (%) Replicate 1 / Percent activation (%) Replicate 2: 10 μM. The procedure:
Recombinant, full-length human HDAC1 (GenBank Accession No. NM_004964) with a C-terminal FLAG tag was produced by BPS Biosciences (San Diego, Calif.) using large-scale insect cell protein expression and purification in order to support a large-scale high-throughput screen (HTS).
Compounds were tested with a reaction time of 6 h with compounds tested at a single concentration (10 μM) in duplicate. As a positive control, the biflavonoid gingketin was chosen.
Compounds were tested in duplicate at 10 μM nominal final concentration in 384-well plate format. The reference activator compound, ginkgetin (50 μM), was included in duplicates in each HTS plate as a positive control condition, 24 negative control samples (DMSO only) were included in each plate to provide for the 0% activation baseline.
Within each HTS plate, the effect of individual compounds on the enzymatic activity of HDAC1 was calculated as % change in the conversion of the peptide substrate relative to the average substrate conversion value calculated across the 24 negative control samples.

For a further assay, the target named is T2, recombinant HDAC1 (Homo sapiens, UniProt Q13547).
T2 construct: FLAG (C); purchased BPS Biosciences (San Diego, Calif.); host or cells: insect cells (Sf9)
Nature of the assay: Secondary HDAC1 microfluidics-based assay, 8-point dose response, substrate FAM-TSRHKacKL. The format is biochemical. Particulars: for Emax: read-out: Maximum activation % during dose response (50 μM maximum); for AC50 / activation of up to (HDAC1): dose response 50 μM to 0.02 μM.

For assay [2], the system named is histone lysine residues known to be HDAC1 targets in HEK293T cells. As to the kind of experiment: Histone acetylation in HEK293T cells by Western blot. It is filed as cell-based, Human. The following applies: 10 μM or 50 μM, 20 h. The procedure:
DAC compounds were added to HEK293T cells for 20 h. Vehicle was DMSO. Histones were acid-extracted and analyzed by Western blot for Ac-H3K56, Ac-H4K12, Ac-H3K14 and Ac-H2B. Histone 3 was used as the loading control.
Next, what was tested was whether a treatment of HDAC1 activators can increase HDAC1 enzymatic activity in cultured cells. Human HEK293T cells were treated with compounds at different concentrations (10 μM or 50 μM) for 20 h. Histone proteins were extracted, and Western blotting was used to analyze the acetylation of certain histone lysine residues known to be HDAC1 targets.
In general terms: Immunoblotting shows a protein as a band on a membrane.

Assay [3] concerns HT-22 cells. As to the kind of experiment: Etoposide-induced DNA damage stress in HT-22 cells, cell viability. It is filed as cell-based. Particulars: 5 μM for DAC-001 and DAC-003, 10 μM for others; 3 h before 2 μM etoposide; 72 h; p<0.001. The procedure: (§1) HT-22 cells, a hippocampal neuron derived cell line, were used to model neurodegeneration. Two types of insults were used. […] Etoposide, a topoisomerase II inhibitor, stressed cells through DNA damage. These two types of stresses have been documented in neurodegenerative diseases.
Similarly, HT-22 cells were pre-incubated with compounds (5 μM for DAC-001 and DAC-003; 10 μM for others) for 3 h. Then, 2 μM etoposide was added to the culture medium. Cell viability was measured 72 h later (FIG. 5B).

A further assay relates to DIV 14 cortical neurons. Nature of the assay: Neuronal excitotoxicity model, MAP2 staining of dendrites. It is filed as cell-based. Particulars: compound 20 h; 50 μM glutamate 1 h; p<0.01 for significant. The protocol: The neuroprotection potential of the candidate compounds were also tested using a neuronal excitoxicity model. DIV 14 cortical neurons were treated with the compounds for 20 h, 50 μM glutamate was added to the culture 1 h before processing the samples for immunocytochemistry. […] Ginkgetin was used as a positive control.

In assay [4] the test system is HT-22 cells. As to the kind of experiment: Glutamate-induced oxidative stress in HT-22 cells, CellTiter-Glo viability. The format is cell-based. Particulars: compound 3 h before 2.5 mM glutamate; p<0.05 versus vehicle; 10 μM DAC-003. The procedure:
as §1
HT-22 cells were treated with compounds for 3 h prior to the addition of 2.5 mM glutamate. Cell viability was measured by CellTiter-Glo assays (Promega) (FIG. 5A).

The next assay has as its target recombinant HDAC2 (Homo sapiens, UniProt Q92769). Nature of the assay: Microfluidics-based deacetylase assay with HDAC2. The format is biochemical. Particulars: dose response. The procedure: (§2) Based upon the results of the HDAC1 activator screen performed, a total of 21 compounds (for structures, see FIGS. 6A to 6C) were initially selected as hits due to their ability to enhance the deacetylase activity of recombinant HDAC1. Those hits, designated as “DACs” (deacetylase activating compounds), were measured using a microfluidics-based assay with an acetylated peptidic substrate (FAM-TSRHKacKL) over a reaction time of 6 h. The 21 HTS hits plus two controls: ginkgetin (an activator) and TSA (trichostatin A, an inhibitor; for its structure, see FIG. 6A) were retested in an 8-point dose response ranging from 50 μM to 0.02 μM.
(§3) Microfluidics-based deacetylase assays were also performed using recombinant HDAC2, HDAC3, and HDAC8 to determine the selectivity of the compounds. Many of the confirmed compounds also activated HDAC2 isoform to a similar or even greater extent. Some compounds activated HDAC3 and inhibited the HDAC8 isoform.

The next assay has as its target recombinant HDAC3 (Homo sapiens, UniProt O15379). Nature of the assay: Microfluidics-based deacetylase assay with HDAC3. The following applies: read-out: maximal effect (activation of HDAC3). The format is biochemical. Details: dose or concentration left out as unconfirmed. The procedure: as §2, §3
Setting [5] is: 8-point dose response 50 μM to 0.02 μM, 6 h.

T2 sequence (Q13547 whole entry): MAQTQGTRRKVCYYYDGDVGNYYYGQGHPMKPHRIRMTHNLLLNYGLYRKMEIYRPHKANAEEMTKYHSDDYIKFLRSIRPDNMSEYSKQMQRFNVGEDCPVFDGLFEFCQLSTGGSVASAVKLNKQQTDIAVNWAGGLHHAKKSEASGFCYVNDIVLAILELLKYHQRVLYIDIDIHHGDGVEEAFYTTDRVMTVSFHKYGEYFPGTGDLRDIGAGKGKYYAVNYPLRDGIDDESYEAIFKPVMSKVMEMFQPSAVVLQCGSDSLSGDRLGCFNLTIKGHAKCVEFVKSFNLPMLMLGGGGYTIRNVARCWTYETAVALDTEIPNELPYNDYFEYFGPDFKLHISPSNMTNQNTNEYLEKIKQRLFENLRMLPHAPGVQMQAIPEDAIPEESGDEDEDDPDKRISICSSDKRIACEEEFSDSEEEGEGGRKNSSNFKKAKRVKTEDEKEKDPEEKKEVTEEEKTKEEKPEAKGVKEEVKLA
T1 sequence (Q13547 whole entry): as above
recombinant HDAC2, sequence (Q92769 whole entry, species assumed): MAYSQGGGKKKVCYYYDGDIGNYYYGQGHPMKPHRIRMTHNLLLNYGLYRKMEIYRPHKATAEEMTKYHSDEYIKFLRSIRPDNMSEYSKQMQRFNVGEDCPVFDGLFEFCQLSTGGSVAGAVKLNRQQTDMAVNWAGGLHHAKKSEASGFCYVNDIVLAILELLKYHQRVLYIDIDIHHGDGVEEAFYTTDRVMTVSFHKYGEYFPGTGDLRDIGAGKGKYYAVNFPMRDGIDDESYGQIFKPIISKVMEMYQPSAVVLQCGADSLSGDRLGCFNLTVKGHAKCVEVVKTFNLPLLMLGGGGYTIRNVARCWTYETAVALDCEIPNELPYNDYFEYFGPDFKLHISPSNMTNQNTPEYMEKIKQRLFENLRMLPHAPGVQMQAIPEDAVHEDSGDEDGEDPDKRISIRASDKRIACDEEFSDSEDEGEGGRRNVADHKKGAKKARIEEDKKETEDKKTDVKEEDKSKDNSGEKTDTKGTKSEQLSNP
recombinant HDAC3, sequence (O15379 whole entry, species assumed): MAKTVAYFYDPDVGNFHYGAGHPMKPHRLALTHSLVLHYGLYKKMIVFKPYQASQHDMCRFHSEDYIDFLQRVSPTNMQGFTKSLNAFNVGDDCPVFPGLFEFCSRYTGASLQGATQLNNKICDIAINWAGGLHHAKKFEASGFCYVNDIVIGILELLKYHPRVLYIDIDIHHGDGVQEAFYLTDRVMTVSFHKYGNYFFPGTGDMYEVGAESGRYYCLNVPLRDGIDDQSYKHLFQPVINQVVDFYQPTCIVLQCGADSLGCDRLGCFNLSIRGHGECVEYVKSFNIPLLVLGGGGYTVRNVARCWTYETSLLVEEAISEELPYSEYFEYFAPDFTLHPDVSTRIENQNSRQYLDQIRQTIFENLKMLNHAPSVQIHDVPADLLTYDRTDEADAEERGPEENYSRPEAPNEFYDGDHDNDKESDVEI
recombinant HDAC3, sequence (Q9Y618 395-489 partner limits assumed, species assumed): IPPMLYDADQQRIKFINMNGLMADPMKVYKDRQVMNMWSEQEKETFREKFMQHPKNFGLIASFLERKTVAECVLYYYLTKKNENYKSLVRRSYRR

As for `Cc1ccc(C(=O)NC(=S)Nc2ccc(-c3ccc(CO)o3)cc2)cc1` [DAC-001], in assay [1], the “Average activation % during HTS (10 μM)” value worked out at 130.5%, the “Percent activation (%) Replicate 1” value is listed as 122.6% and the “Percent activation (%) Replicate 2” value is 138.4%. In assay [1] (FIG. 3A, 3B), the “conversion of peptidic substrate FAM-TSRHKacKL to FAM-TSRHKKL (microfluidic fluorescence reader trace)” value is on record as “increased conversion”. Besides, the Emax on recombinant HDAC1 (setting [5]) was 287%. Moreover, on recombinant HDAC1, the AC50 amounted to 4.05 µM and the “activation of up to (HDAC1)” value was “up to 287%”. Besides, the “levels of acetylated histones (Ac-H3K56, Ac-H3K14, Ac-H4K12, Ac-H2B)” value (from here on “levels of acetylated histones”) in assay [2] is “reduced the levels of Ac-H3K56, Ac-H3K14, Ac-H4K12 and Ac-H2B”. Moreover, the “protection against DNA damage stress (cell viability)” value (“protection against DNA damage stress” below) in the assay with HT-22 cells [3] is reported as “significantly protect cells from DSB-induced cell death; also recorded: significant protection”. Also, in the assay with DIV 14 cortical neurons, the “protection of neurons from excitotoxicity (retention of dendrites)” value (from here on “protection of neurons”) is “significant protection”.
Turning to `O=C(NC(=S)Nc1ccc(-c2ccc(CO)o2)cc1)c1cccs1` [DAC-002], in assay [1], the “Average activation % during HTS (10 μM)” value is 54.7%, the “Percent activation (%) Replicate 1” value is reported as 52.7% and the “Percent activation (%) Replicate 2” value is 56.6%. Besides, the Emax at recombinant HDAC1 (setting [5]) amounted to 221%. Besides, at recombinant HDAC1, the AC50 was 8.31 µM and the “activation of up to (HDAC1)” value is reported as at most 221%. Further, in assay [2], the “levels of acetylated histones” value is “reduced the levels of Ac-H3K56, Ac-H3K14, Ac-H4K12 and Ac-H2B”. Moreover, in the assay with HT-22 cells [3], the “protection against DNA damage stress” value is given as “significantly protect cells from DSB-induced cell death; also recorded: significant protection”. Besides, the “protection of neurons” value in the assay with DIV 14 cortical neurons is given as “trend of protection”.
In the case of `Cc1cccc2c1[nH]c1nc(N/N=C/c3ccc(O)c(O)c3)nnc12` [DAC-003], in assay [1], the “Average activation % during HTS (10 μM)” value amounted to 24.6%, the “Percent activation (%) Replicate 1” value turned out to be 24.2% and the “Percent activation (%) Replicate 2” value worked out at 24.9%. Further, the Emax on recombinant HDAC1 (setting [5]) came out at 34%. Also, in assay [2], the “levels of acetylated histones” value is “reduced the levels of Ac-H3K56, Ac-H3K14, Ac-H4K12 and Ac-H2B”. Moreover, the “protection from oxidative stress (cell viability)” value in the assay on HT-22 cells [4] is listed as “significantly protect cells from oxidative insults; also recorded: significantly protect cells from oxidative stress”. In the assay on HT-22 cells [3], the “protection against DNA damage stress” value is recorded as “significantly protect cells from DSB-induced cell death; also recorded: significant protection”. Moreover, in the assay with DIV 14 cortical neurons, the “protection of neurons” value is “trend of protection”.
Regarding `CCC(=O)C1(Sc2nc3ccccc3[nH]2)CC(C)(C)OC1=O` (stereo not shown) [DAC-009], in assay [1], the “Average activation % during HTS (10 μM)” value is on record as 18.7%, the “Percent activation (%) Replicate 1” value was 15.1% and the “Percent activation (%) Replicate 2” value is listed as 22.2%. Moreover, the Emax on recombinant HDAC1 (setting [5]) was 12%. The “levels of acetylated histones” value in assay [2] is “reduced the levels of Ac-H3K56, Ac-H3K14, Ac-H4K12 and Ac-H2B”. Besides, the “protection against DNA damage stress” value in the assay with HT-22 cells [3] is listed as “significantly protect cells from DSB-induced cell death; also recorded: significant protection”.
Take `COc1ccc(CNc2cc(C)ccc2C)c(OC)c1` [DAC-012]: in assay [1], the “Average activation % during HTS (10 μM)” value is on record as 17.7%, the “Percent activation (%) Replicate 1” value is on record as 17.5% and the “Percent activation (%) Replicate 2” value came to 17.9%. The Emax on recombinant HDAC1 (setting [5]) stood at 26%. Besides, in the assay on HT-22 cells [4], the “protection from oxidative stress (cell viability)” value is listed as “trend of protection”. In addition, in the assay with HT-22 cells [3], the “protection against DNA damage stress” value is reported as “significantly protect cells from DSB-induced cell death; also recorded: significant protection”.
For `COc1cc(O)c2c(=O)cc(-c3ccc(OC)c(-c4c(O)cc(O)c5c(=O)cc(-c6ccc(O)cc6)oc45)c3)oc2c1` [ginkgetin, reference compound], in assay [1], the “Average activation % during HTS (10 μM)” value was determined as 25.6%. Also, the “Average effect (positive control)” value in assay [1] (ginkgetin 50 μM, 580 measurements, standard deviation: 4%) was 26% activation. Further, the Emax on recombinant HDAC1 (setting [5]) came to 23%; at recombinant HDAC2 (read-out: maximal effect (activation of HDAC2)), 165%; on recombinant HDAC3, 20%. Also, the Emax at 10 µM on recombinant HDAC1 (plateau at 10 μM, read-out: maximal effect (activation of HDAC1)) is 20%. In addition, the AC50 at recombinant HDAC2 came out at 28 µM.
As for trichostatin A [reference compound], the “Average activation % during HTS (10 μM)” value in assay [1] came to 0%. In addition, the “Maximum activation % during dose response (50 μM maximum)” value on recombinant HDAC1 (setting [5]) came to 0%. Further, the “effect on HDAC isoforms in dose response” value at recombinant HDAC1 (all HDAC isoforms) is on record as “dose dependent inhibition of all HDAC isoforms”.

One may read the AC50 as the concentration at which the activity in the assay is half-maximal.

The values above are taken from patent US11084803B2, “Activators of class I histone deacetylases (HDACs) and uses thereof” (Massachusetts Institute of Technology, priority 2011, dated 2021).
